This note sets out measurements from US12624354B2, “Methods and compositions for prime editing nucleotide sequences” (The Broad Institute, Inc., priority 2019, dated 2026).

The subject of experiment [1] is different target sites in various cell lines. As to the kind of experiment: Efficiency of prime editors with truncated RT. In kind it is cell-based. The text has this: FIG. 75 provides a bar graph comparing the efficiency (i.e., “% of total sequencing reads with the specified edit or indels”) of PE2, PE2-trunc, PE3, and PE3-trunc over different target sites in various cell lines.
See FIG. 75, which provides a bar graph comparing the efficiency (i.e., “% of total sequencing reads with the specified edit or indels”) of PE2, PE2-trunc, PE3, and PE3-trunc over different target sites in various cell lines.

Experiment [2] has as its system 5′-Cy5-labeled dsDNA substrates. As to the kind of experiment: In vitro TPRT (prime editing) primer extension assay, denaturing urea PAGE. The experiment is classed as biochemical. The settings on record: non-nicked substrate, standard gRNA (gRNA_0, lane 3).
Description: All reactions are with M-MLV RT.
Then, the fluorescently labeled DNA substrate was added along with dNTPs and the RT enzyme. After 1 hour of incubation at 37° C., the reaction products were analyzed by denaturing urea-polyacrylamide gel electrophoresis (PAGE).
However, the DNA substrates are not pre-nicked in this set of experiments. […] The reaction products were analyzed by denaturing urea-polyacrylamide gel electrophoresis (PAGE).
Reactions were incubated at 37° C. for 1 hour, then analyzed by denaturing urea PAGE and visualized for Cy5 fluorescence.
Reactions were allowed to proceed at 37° C. for 1 hour prior to separation by denaturing urea PAGE and visualization by Cy5 fluorescence.
For the next experiment, the system named is HEK cells. In words: Npu intein-split prime editors, plasmid transfection, high-throughput sequencing. Particulars: HEK cells transfected with plasmids. The experiment is classed as cell-based. The text has this:
This Example is focused on a PE fusion protein comprising the canonical SpCas9 (SEQ ID NO: 18). The split sites for other Cas9 proteins may be the corresponding same site, or may need to be optimized for each different Cas9 protein. In the instant Example, the prime editor was split between residues 1023 and 1024 of SpCas9 (SEQ ID NO: 18). This is referred to as the “1023/1024” split site.
Prime editors (PEs) exceed the AAV packaging capacity.
It was therefore determined whether mutation from the Cas9-native “SEQ” towards the Npu intein “CFN” sequence altered efficiency of prime editing.
Although associated, unspliced editors may be active, perturbations of the sterics of the prime editor resulting from incomplete splicing during initiation steps may affect editing outcomes.

Take “PE2-trunc: Cas9 (H840A) fused to a truncated M-MLV reverse transcriptase with D200N, T306K, W313F, T330P; SEQ ID NO: 765”: the “efficiency (% of total sequencing reads with the specified edit or indels)” value in experiment [1] is “about as efficient as the prime editors comprising the non-truncated RT proteins”. For “Cas9 nickase: Cas9 nickase (SpyCas9 H840A mutant)”, the “cleavage of the DNA strand” value in experiment [2] was “efficiently cleaves the DNA strand”.

B1: 1024-CFN: intein-split PE with Cas9 residues at 1024 mutated to the Npu intein CFN sequence (protein)
chain: MKRTADGSEFESPKKKRKVIKIATRKYLGKQNVYDIGVERDHNFALKNGFIASNCFNEIGKATAKYFFYSNIMNFFKTEITLANGEIRKRPLIETNGETGEIVWDKGRDFATVRKVLSMPQVNIVKKTEVQTGGFSKESILPKRNSDKLIARKKDWDPKKYGGFDSPTVAYSVLVVAKVEKGKSKKLKSVKELLGITIMERSSFEKNPIDFLEAKGYKEVKKDLIIKLPKYSLFELENGRKRMLASAGELQKGNELALPSKYVNFLYLASHYEKLKGSPEDNEQKQLFVEQHKHYLDEIIEQISEFSKRVILADANLDKVLSAYNKHRDKPIREQAENIIHLFTLTNLGAPAAFKYFDTTIDRKRYTSTKEVLDATLIHQSITGLYETRIDLSQLGGDSGGSSGGSSGSETPGTSESATPESSGGSSGGSSTLNIEDEYRLHETSKEPDVSLGSTWLSDFPQAWAETGGMGLAVRQAPLIIPLKATSTPVSIKQYPMSQEARLGIKPHIQRLLDQGILVPCQSPWNTPLLPVKKPGTNDYRPVQDLREVNKRVEDIHPTVPNPYNLLSGLPPSHQWYTVLDLKDAFFCLRLHPTSQPLFAFEWRDPEMGISGQLTWTRLPQGFKNSPTLFNEALHRDLADFRIQHPDLILLQYVDDLLLAATSELDCQQGTRALLQTLGNLGYRASAKKAQICQKQVKYLGYLLKEGQRWLTEARKETVMGQPTPKTPRQLREFLGKAGFCRLFIPGFAEMAAPLYPLTKPGTLFNWGPDQQKAYQEIKQALLTAPALGLPDLTKPFELFVDEKQGYAKGVLTQKLGPWRRPVAYLSKKLDPVAAGWPPCLRMVAAIAVLTKDAGKLTMGQPLVILAPHAVEALVKQPPDRWLSNARMTHYQALLLDTDRVQFGPVVALNPATLLPLPEEGLQHNCLDILAEAHGTRPDLTDQPLPDADHTWYTDGSSLLQEGQRKAGAAVTTETEVIWAKALPAGTSAQRAELIALTQALKMAEGKKLNVYTDSRYAFATAHIHGEIYRRRGWLTSEGKEIKNKDEILALLKALFLPKRLSIIHCPGHQKGHSAEARGNRMADQAARKAAITETPDTSTLLIENSSPSGGSKRTADGSEFEPKKKRK
Take B1: in the experiment on HEK cells, the “prime editing activity compared with full-length PE3” value is “recapitulates full-length PE3 activity”.
